Data reported in patent US20010031865A1, “Substituted 3-phenyluracils” (priority 1991, published 2001).

Experiments:
[1] = tested on: undesirable broad-leaved plants and grasses; test: Greenhouse herbicidal test, postemergence treatment; type: in vivo; conditions: for control of undesirable broad-leaved plants and grasses: postemergence use of 0.5 kg/ha, greenhouse
Protocol: The seeds of the test plants were sown separately according to species. For the purpose of the postemergence treatment, the test plants were grown in the test vessels themselves or were planted in the test vessels a few days beforehand. The active ingredients suspended or emulsified in water were not applied until a height of growth of from 3 to 15 cm, depending on the form of growth. The plants were kept at 10-25° C. or 20-35° C., according to species. The test periods extended over from 2 to 4 weeks. During this time, the plants were tended and their reaction to the individual treatments was evaluated. Rating was based on a scale from 0 to 100. 100 means no emergence of the plants or complete destruction of at least the above-ground parts and 0 means no damage on normal growth. The plants used in the greenhouse experiments consisted of the following species: [table]

[2] = tested on: young, 4-leaved cotton plants of the Stoneville 825 variety; test: Defoliation of young cotton plants (Use Example 1); type: in vivo; conditions: after 13 days
Protocol: The comparative agent used was
A 6,7-dihydrodipyrido[1,2-alpha:2′, 1′-c]pyridilium as the dibromide monohydrate salt (common name: Diquat®).
The comparative agent was used in the form-of the preformulated commercial product.
The test plants used were young, 4-leaved cotton plants (without cotyledons) of the Stoneville 825 variety, which were grown under greenhouse conditions (relative humidity from 50 to 70%; day/night temperature 27/20° C.).
The amount of water applied was equivalent to […]. After 13 days, the number of dropped leaves and the degree of defoliation in % were determined.

[3] = converted application rate 0.10 kg/ha

Row | melting point | SMILES | control of undesirable broad-leaved plants and grasses [1] | other results
1 | 221 to 223 °C | CCO/N=C/c1cc(-n2c(=O)cc(C(F)(F)F)[nH]c2=O)ccc1Cl [compound 1.4, 3-[4-Chloro-3-(ethoximinomethyl)-phenyl]-2,4-dioxo-6-trifluoromethyl-1,2,3,4-tetrahydropyrimidine] | – | –
2 | – | CCCCOC(=O)/C(Cl)=C/c1cc(-n2c(=O)cc(C(F)(F)F)n(C)c2=O)ccc1Cl [compound 1.15, 3-[4-Chloro-3-(2-chloro-2-butoxycarbonylethen-1-yl)-phenyl]-2,4-dioxo-1-methyl-6-trifluoromethyl-1,2,3,4-tetrahydropyrimidine] | very readily controlled | –
3 | – | Cn1c(C(F)(F)F)cc(=O)n(-c2ccc(Cl)c(C=O)c2)c1=O [compound 1.1, 3-(4-Chloro-3-formylphenyl)-2,4-dioxo-1-methyl-6-trifluoromethyl-1,2,3,4-tetrahydropyrimidine] | very readily controlled | –
4 | 219 to 221 °C | CCOC(=O)N/N=C/c1cc(-n2c(=O)cc(C(F)(F)F)n(C)c2=O)ccc1Cl [compound 1.91, 3-(4-Chloro-3-ethoxycarbonylhydrazonomethylphenyl)-2,4-dioxo-1-methyl-6-trifluoromethyl-1,2,3,4-tetrahydropyrimidine] | – | –
5 | – | COC(=O)/C(C#N)=C/c1cc(-n2c(=O)cc(C(F)(F)F)n(C)c2=O)ccc1Cl [compound 1.22, 3-[4-Chloro-3-(2-cyano-2-methoxycarbonylethenyl)-phenyl]-2,4-dioxo-1-methyl-6-trifluoromethyl-1,2,3,4-tetrahydropyrimidine] | very readily controlled | –
6 | – | Cn1c(C(F)(F)F)cc(=O)n(-c2ccc(Cl)c(C3OCCCO3)c2)c1=O [compound 2.1, 3-[4-Chloro-3-(1,3-dioxan-2-yl)-phenyl]-2,4-dioxo-1-methyl-6-trifluoromethyl-1,2,3,4-tetrahydropyrimidine] | very readily controlled | –
7 | 132 to 134 °C | CCO/N=C/c1cc(-n2c(=O)cc(C(F)(F)F)n(C)c2=O)ccc1Cl [compound 1.5, 3-[4-Chloro-3-(ethoximinomethyl)-phenyl]-2,4-dioxo-1-methyl-6-trifluoromethyl-1,2,3,4-tetrahydropyrimidine] | very readily controlled | –
8 | – | c1cc[n+]2c(c1)-c1cccc[n+]1CC2 [A, 6,7-dihydrodipyrido[1,2-alpha:2′, 1′-c]pyridilium, reference compound] | – | Defoliation [2, 3]: 0%
9 | – | COC(=O)/C(Cl)=C/c1cc(-n2c(OC)nc(C(F)(F)F)cc2=O)ccc1Cl [compound 3.1, 3-[4-Chloro-3-(2-chloro-2-methoxycarbonylethenyl)-phenyl]-2-methoxy-4-oxo-6-trifluoromethyl-3,4-dihydro-pyrimidine] | – | control of undesirable broad-leaved plants ([1]; postemergence method, application rates of 0.06 and 0.03 kg/ha): very readily controlled; Defoliation ([2]; converted application rate 0.05 kg/ha): 53%; Defoliation [2, 3]: 73%
